Laboratory results from US6756374B2, “Diaminothiazoles having antiproliferative activity” (Hoffmann-La Roche Inc., priority 2001, dated 2004).

Assays:
human cyclin B-CDK1 = human cyclin B-CDK1 (Homo sapiens, UniProt P06493); test: FlashPlate kinase assay, cyclin B-CDK1; format: biochemical; conditions: Rb protein substrate, 1 μM ATP
Description: (§1) To determine inhibition of Cdk4, Cdk2 and Cdk1 activity, kinase assays were conducted using FlashPlate™ assays (NEN™-Life Science Products). FlashPlate assays were performed using recombinant human cyclin B-CDK1, human cyclin E-CDK2 or human cyclin D1-CDK4 complexes. GST-cyclinE (GST-cycE), CDK2, GST-cyclinB (GST-cycB), CDK1, GST-CDK4 and cyclin D1 (cycD1) cDNA clones in baculovirus vectors were provided by Dr. W. Harper at the Baylor College of Medicine, Houston, Tex.
(§2) The expression of the 62Kd protein was under the control of an IPTG inducible promoter in an M15 E. coli strain. Cells were lysed by sonication and purification was carried out by binding lysates at pH 8.0 to a Ni-chelated agarose column pretreated with 1 mM imidazole. The resin was then washed several times with incrementally decreasing pH buffers to pH 6.0, and eluted with 500 mM imidazole. Eluted protein was dialysed against 20 mM HEPES pH 7.5, 30% glycerol, 200 mM NaCl, and 1 mM DTT. Purified Rb fusion protein stocks were quantitated for protein concentration, aliquoted, and stored at −70° C.
(§3) For all three kinase assays reported herein, 96-well FlashPlates were coated with Rb protein at 10 μg/ml, using 100 μl per well. Plates were incubated at 4° C. overnight or at room temperature for 3 hours on a shaker. To control for nonspecific phosphorylation, one row of wells was coated with 100 μl/well coating buffer (20 mM HEPES, 0.2 M NaCl). Plates were then washed twice with wash buffer (0.01% Tween 20 in phosphate-buffered saline). Compounds to be tested (“test compounds”) were added to the wells at 5×final concentration. Reactions were initiated by immediate addition of 40 μl reaction mix (25 mM HEPES, 20 mM MgCl2, 0.002% Tween 20, 2 mM DTT, 1 μM ATP, 4 nM ^33P-ATP) and a sufficient amount of enzyme to give counts that were at least 10-fold above background. Plates were incubated at room temperature on a shaker for 30 minutes. Plates were washed four times with the wash buffer, sealed, and counted on the TopCount scintillation counter (Packard Instrument Co., Downers Grove, Ill.]. The percent inhibition of Rb phosphorylation, which is a measure of the inhibition of CDK activity, was determined according to the following formula: [formula]
(§4) where “test compound” refers to the average counts per minute of the test duplicates, “nonspecific” refers to the average counts per minute when no CyclinD/Cdk4, etc., was added, and “total” refers to the average counts per minute when no compound was added.

HCT116 = test: Tetrazolium dye (MTT) proliferation assay; format: cell-based; conditions: Homo sapiens, HCT-116; HCT116 colorectal carcinoma cell line
Description: The cell line used was HCT116, a colorectal carcinoma cell line obtained from the American Type Cell Culture Collection (ATCC;
Rockville, Md.). The cells were grown in McCoy's 5A medium supplemented with 10% FCS and L-glutamine.
Cells were plated at the appropriate seeding density to give logarithmic growth over the course of the assay in a 96-well tissue culture plate. Plates were incubated overnight at 37° C. in a humidified incubator with 5% CO2. The next day, test compounds were serially diluted to four times the final concentration in the appropriate medium containing 1.2% DMSO. One-fourth final volume of each dilution was added in duplicate to the plates containing cells. The same volume of 1.2% DMSO in medium was added to a row of “control wells” such that the final concentration of DMSO in each well was 0.3%. Wells to which no cells were added served as the “blank.” Wells to which no inhibitor was added served as “no inhibitor control.” The plates were) returned to the incubator, and at set time points (determined by their growth curves) plates were analyzed as described below.
3-(4,5-dimethylthiazole-2-yl)-2,5-diphenyl-2H-tetrazolium bromide (thiazolyl blue; MTT; Sigma) was added to each well to yield a final concentration of 1 mg/ml. Plates were returned to the incubator for 2.5-3 hours at 37° C. The MTT-containing medium was removed and the resulting formazan metabolite was solubilized in 100% ethanol with shaking for 15 minutes at room temperature. Absorbance readings were taken in a microtiter plate reader (Dynatech and Molecular Devices plate readers were used interchangeably) at a wavelength of 570 nm with a 650 nm reference. Percent inhibition (% INH) is calculated by subtracting the absorbance of the blank well from all wells, then subtracting the ratio of the average absorbance of each test duplicate (SAVE) by the average of the controls (CAVE) from 1.00. The final number is then multiplied by 100 (% INH=(1.00−SAVE/CAVE)×100).

human cyclin E-CDK2 = human cyclin E-CDK2 (Homo sapiens, UniProt P24941); test: FlashPlate kinase assay, cyclin E-CDK2; format: biochemical; conditions: Rb protein substrate, 1 μM ATP
Description: as §1, §2, §3, §4

human cyclin D1-CDK4 = human cyclin D1-CDK4 (Homo sapiens, UniProt P11802); test: FlashPlate kinase assay, cyclin D1-CDK4; format: biochemical; conditions: Rb protein substrate, 1 μM ATP
Description: as §1, §2, §3, §4

Chain of human cyclin B-CDK1 (P06493 whole entry): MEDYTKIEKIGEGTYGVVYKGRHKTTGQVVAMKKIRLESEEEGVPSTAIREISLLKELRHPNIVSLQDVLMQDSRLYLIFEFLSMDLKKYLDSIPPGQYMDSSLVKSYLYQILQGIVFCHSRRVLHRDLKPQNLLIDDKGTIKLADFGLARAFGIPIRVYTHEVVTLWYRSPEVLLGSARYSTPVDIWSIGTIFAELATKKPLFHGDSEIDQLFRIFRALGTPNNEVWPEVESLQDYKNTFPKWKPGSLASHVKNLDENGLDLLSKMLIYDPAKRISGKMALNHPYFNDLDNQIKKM
Chain of human cyclin B-CDK1 (P14635 whole entry partner): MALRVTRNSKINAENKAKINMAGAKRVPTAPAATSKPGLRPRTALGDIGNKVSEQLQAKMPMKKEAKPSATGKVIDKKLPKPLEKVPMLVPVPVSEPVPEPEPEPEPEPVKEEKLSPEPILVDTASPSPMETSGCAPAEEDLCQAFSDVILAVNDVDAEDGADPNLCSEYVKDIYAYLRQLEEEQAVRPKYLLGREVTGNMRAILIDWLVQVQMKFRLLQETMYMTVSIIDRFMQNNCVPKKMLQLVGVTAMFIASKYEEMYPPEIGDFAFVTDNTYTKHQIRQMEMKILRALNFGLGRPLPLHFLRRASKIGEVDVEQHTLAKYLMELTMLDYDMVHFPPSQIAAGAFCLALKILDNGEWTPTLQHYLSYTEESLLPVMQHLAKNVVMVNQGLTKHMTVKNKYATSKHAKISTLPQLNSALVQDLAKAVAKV
Chain of human cyclin D1-CDK4 (P11802 whole entry): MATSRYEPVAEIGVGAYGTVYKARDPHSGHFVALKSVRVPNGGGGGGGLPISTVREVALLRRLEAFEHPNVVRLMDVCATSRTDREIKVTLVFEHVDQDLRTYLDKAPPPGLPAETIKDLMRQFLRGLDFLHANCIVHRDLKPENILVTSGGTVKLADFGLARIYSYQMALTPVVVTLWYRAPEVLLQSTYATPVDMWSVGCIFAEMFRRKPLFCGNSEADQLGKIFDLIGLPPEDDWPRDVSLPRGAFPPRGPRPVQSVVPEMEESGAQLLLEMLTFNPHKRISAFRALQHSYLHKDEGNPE
Chain of human cyclin D1-CDK4 (P24385 whole entry partner): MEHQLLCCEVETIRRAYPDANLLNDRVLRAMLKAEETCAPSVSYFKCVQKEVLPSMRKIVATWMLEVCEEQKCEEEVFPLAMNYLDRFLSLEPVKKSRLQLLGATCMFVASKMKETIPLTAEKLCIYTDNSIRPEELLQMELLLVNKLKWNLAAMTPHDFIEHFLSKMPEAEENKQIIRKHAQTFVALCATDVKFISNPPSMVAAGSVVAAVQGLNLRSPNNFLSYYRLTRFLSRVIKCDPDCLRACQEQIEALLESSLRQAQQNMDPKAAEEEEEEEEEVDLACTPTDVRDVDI

| Compound | IC50 (human cyclin B-CDK1) | IC50 (HCT116) | IC50 (human cyclin E-CDK2) | IC50 (human cyclin D1-CDK4) |
| --- | --- | --- | --- | --- |
| CC(C)C[C@H](CO)Nc1ccc(C(=O)c2sc(Nc3ccc(N4CCN(C)CC4)cc3)nc2N)cc1[N+](=O)[O-] [Example 63, (R)-[4-Amino-2-[[4-(4-methyl-1-piperazinyl)phenyl]amino]-5-thiazolyl][3-nitro-4-[[1-(hydroxymethyl)-3-methylbutyl]amino]phenyl]methanone] | 5.2 µM | 1.3 µM | 5.3 µM | 25 nM |
| CN1CCN(c2ccc(Nc3nc(N)c(C(=O)c4ccc(N5CCCC(CO)C5)c([N+](=O)[O-])c4)s3)cc2)CC1 (racemic) [Example 61, [4-Amino-2-[[4-(4-methyl-1-piperazinyl)phenyl]amino]-5-thiazolyl][3-nitro-4-[3-(hydroxymethyl)-1-piperidinyl]phenyl]methanone] | 3.5 µM | 3.9 µM | 2.3 µM | 12 nM |
| CN1CCN(c2ccc(Nc3nc(N)c(C(=O)c4ccc5oc6ccccc6c5c4)s3)cc2)CC1 [Example 34, [4-Amino-2-[[4-(4-methyl-1-piperazinyl)phenyl]amino]-5-thiazolyl](2-dibenzofuranyl)methanone] | 11.7 µM | 3.8 µM | 6.1 µM | 49 nM |
| Nc1nc(Nc2ccc(N3CCN(CCO)CC3)cc2)sc1C(=O)c1ccc(N2CCCC2)cc1 [Example 50, [4-Amino-2-[[4-[4-(2-hydroxyethyl)-1-piperazinyl]phenyl]amino]-5-thiazolyl][4-(1-pyrrolidinyl)phenyl]methanone] | 5.5 µM | 9.3 µM | 2.5 µM | 30 nM |
| CC(=O)Nc1ccc(C(=O)c2sc(Nc3ccc(N4CCN(C(C)C)CC4)cc3)nc2N)cc1 [Example 45] | 5.6 µM | 2.9 µM | 4.9 µM | 25 nM |
| CN1CCN(c2ccc(Nc3nc(N)c(C(=O)c4ccc(N5CCCCC5)cc4)s3)cc2)CC1 [Example 27, [4-Amino-2-[[4-(4-methyl-1-piperazinyl)phenyl]amino]-5-thiazolyl][4-(1-piperidinyl)phenyl]methanone] | 20.1 µM | 9.1 µM | 9.4 µM | 4 nM |
| CC(C)C[C@H](CO)Nc1ccc(C(=O)c2sc(Nc3ccc(N4CCN(C)CC4)cc3)nc2N)cc1N [Example 66, (R)-[3-Amino-4-[[1-(hydroxymethyl)-3-methylbutyl]amino]phenyl][4-amino-2-[[4-(4-methyl-1-piperazinyl)phenyl]amino]-5-thiazolyl]methanone] | 9.6 µM | 10.8 µM | 3.8 µM | 20 nM |
| CN1CCN(c2ccc(Nc3nc(N)c(C(=O)c4ccc(N5CCC(O)CC5)c([N+](=O)[O-])c4)s3)cc2)CC1 [Example 64, [4-Amino-2-[[4-(4-methyl-1-piperazinyl)phenyl]amino]-5-thiazolyl][3-nitro-4-(4-hydroxy-1-piperidinyl)phenyl]methanone] | 3.5 µM | 8 µM | 4.8 µM | 9 nM |
| CN1CCN(c2ccc(Nc3nc(N)c(C(=O)c4ccc5c(c4)OCCCO5)s3)cc2)CC1 [Example 29, [4-Amino-2-[[4-(4-methyl-1-piperazinyl)phenyl]amino]-5-thiazolyl](3,4-dihydro-2H-1,5-benzodioxepin-7-yl)methanone] | 15.9 µM | 9.5 µM | 9.6 µM | 103 nM |
| CN1CCN(c2ccc(Nc3nc(N)c(C(=O)c4ccc(Cl)c(Cl)c4)s3)cc2)CC1 [Example 37, [4-Amino-2-[[4-(4-methyl-1-piperazinyl)phenyl]amino]-5-thiazolyl](3,4-dichlorophenyl)methanone] | 10 µM | 6.6 µM | 6.3 µM | 73 nM |

Now those with a lower IC50 (human cyclin B-CDK1), led by results:

| IC50 (human cyclin B-CDK1) | IC50 (HCT116) | IC50 (human cyclin E-CDK2) | IC50 (human cyclin D1-CDK4) | Compound |
| --- | --- | --- | --- | --- |
| 2.9 µM | 3 µM | 3.7 µM | 15 nM | CC(C)N1CCN(c2ccc(Nc3nc(N)c(C(=O)c4ccc5c(c4)OCCO5)s3)cc2)CC1 [Example 41, [4-Amino-2-[[4-[4-(1-methylethyl)-1-piperazinyl]phenyl]amino]-5-thiazolyl](2,3-dihydro-1,4-benzodioxin-6-yl)methanone] |
| 2.1 µM | 5.3 µM | 1.5 µM | 15 nM | Nc1nc(Nc2ccc(N3CCN(CCO)CC3)cc2)sc1C(=O)c1ccc2c(c1)OCCO2 [Example 49, [4-Amino-2-[[4-[4-(2-hydroxyethyl)-1-piperazinyl]phenyl]amino]-5-thiazolyl](2,3-dihydro-1,4-benzodioxin-6-yl)methanone] |
| 2 µM | 1.9 µM | 2.6 µM | 6 nM | CN1CCN(c2ccc(Nc3nc(N)c(C(=O)c4ccc5c(c4)OCO5)s3)cc2F)CC1 [Example 38, [4-Amino-2-[[3-fluoro-4-(4-methyl-1-piperazinyl)phenyl]amino]-5-thiazolyl](1,3-benzodioxol-5-yl)methanone] |
| 1.9 µM | 1.5 µM | 2.9 µM | 10 nM | CC(C)N1CCN(c2ccc(Nc3nc(N)c(C(=O)c4ccc5c(c4)OCO5)s3)cc2)CC1 [Example 42, [4-Amino-2-[[4-[4-(1-methylethyl)-1-piperazinyl]phenyl]amino]-5-thiazolyl](1,3-benzodioxol-5-yl)methanone] |
| 1.2 µM | 2.3 µM | 0.7 µM | 28 nM | Nc1nc(Nc2ccc(N3CCN(CCO)CC3)cc2)sc1C(=O)c1cc(F)cc(F)c1 [Example 52, [4-Amino-2-[[4-[4-(2-hydroxyethyl)-1-piperazinyl]phenyl]amino]-5-thiazolyl](3,5-difluorophenyl)methanone] |
| 0.9 µM | 2.1 µM | 1.9 µM | 9 nM | CN1CCN(c2ccc(Nc3nc(N)c(C(=O)c4ccc(NCCO)c([N+](=O)[O-])c4)s3)cc2)CC1 [Example 57, [4-Amino-2-[[4-(4-methyl-1-piperazinyl)phenyl]amino]-5-thiazolyl][4-(2-hydroxyethyl)amino-3-nitrophenyl]methanone] |
| 0.5 µM | 2.8 µM | 0.9 µM | 43 nM | CC(=O)N1CCN(c2ccc(Nc3nc(N)c(C(=O)c4ccc5c(c4)OCO5)s3)cc2)CC1 [Example 47, 1-Acetyl-4-[4-[[4-amino-5-[(1,3-benzodioxol-5-yl)carbonyl]-2-thiazolyl]amino]phenyl]piperazine] |
| 0.5 µM | 4.1 µM | 2.3 µM | 26 nM | CN1CCN(c2ccc(Nc3nc(N)c(C(=O)c4cccc([N+](=O)[O-])c4)s3)cc2)CC1 [Example 31, [4-Amino-2-[[4-(4-methyl-1-piperazinyl)phenyl]amino]-5-thiazolyl](3-nitrophenyl)methanone] |
| 0.5 µM | 3.5 µM | 3.5 µM | 18 nM | CN1CCN(c2ccc(Nc3nc(N)c(C(=O)c4ccc5c(c4)OCO5)s3)cc2)CC1 [Example 25, [4-Amino-2-[[4-(4-methyl-1-piperazinyl)phenyl]amino]-5-thiazolyl](1,3-benzodioxol-5-yl)methanone] |
